Measurements taken from the supplement of paper PMC10307832.

Assays:
Test in all cases: relative viability (nuclei count vs DMSO), 5 days (fraction); higher = more cells survive
[1] = compound: COC1=CC=C(C=C1)COC2=C(C=C(C=C2)CC3=CN=C(N=C3N)N)OC [GW-2580] + O=C(CCCCCCC(=O)Nc1ccccc1)NO [Vorinostat] (partner 1 µM)
Procedure, shortened: (§1)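 Five library-drug doses in √10 steps were combined with a fixed anchor-drug dose, or a single drug was given alone, by pin tool to lung cancer cell lines in 1536-well plates the day after seeding. Nuclei were stained and counted after 5 days. Relative viability is the nuclei count in treated wells over that in vehicle wells, taken as the median of duplicate plates.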

[2] = compound: Cc1cnc(Nc2ccc(OCCN3CCCC3)cc2)nc1Nc1cccc(S(=O)(=O)NC(C)(C)C)c1 [Fedratinib] + CCNC(=O)c1noc(-c2cc(C(C)C)c(O)cc2O)c1-c1ccc(CN2CCOCC2)cc1 [Luminespib] (partner 0.01 µM)
Procedure, shortened: as §1

[3] = compound: Cc1cnc(Nc2ccc(OCCN3CCCC3)cc2)nc1Nc1cccc(S(=O)(=O)NC(C)(C)C)c1 [Fedratinib] + O=C(c1cc(Cc2n[nH]c(=O)c3ccccc23)ccc1F)N1CCN(C(=O)C2CC2)CC1 [Olaparib] (partner 8 µM)
Procedure, shortened: as §1

[4] = compound: Cc1cnc(Nc2ccc(OCCN3CCCC3)cc2)nc1Nc1cccc(S(=O)(=O)NC(C)(C)C)c1 [Fedratinib] + Cc1cc(Nc2cc(N3CCN(C)CC3)nc(Sc3ccc(NC(=O)C4CC4)cc3)n2)n[nH]1 [Tozasertib] (partner 0.1 µM)
Procedure, shortened: as §1

[5] = compound: Cc1cnc(Nc2ccc(OCCN3CCCC3)cc2)nc1Nc1cccc(S(=O)(=O)NC(C)(C)C)c1 [Fedratinib] + COc1cccc2cc(-c3nc([C@H]4CC[C@H](C(=O)O)CC4)n4ncnc(N)c34)[nH]c12 [OSI-027] (partner 0.5 µM)
Procedure, shortened: as §1

[6] = compound: Cc1cnc(Nc2ccc(OCCN3CCCC3)cc2)nc1Nc1cccc(S(=O)(=O)NC(C)(C)C)c1 [Fedratinib] + C[C@]1(O)C[C@@H](c2nc(-c3ccc4ccc(-c5ccccc5)nc4c3)c3c(N)nccn32)C1 [Linsitinib] (partner 1 µM)
Procedure, shortened: as §1

Cell Line | relative viability ([1]; first compound 0.08 µM) | relative viability ([1]; first compound 0.8 µM) | relative viability ([1]; first compound 2.53 µM) | relative viability ([1]; first compound 8 µM) | relative viability ([2]; first compound 0.1 µM) | relative viability ([2]; first compound 0.3162 µM) | relative viability ([2]; first compound 1 µM) | relative viability ([3]; first compound 0.1 µM) | relative viability ([3]; first compound 0.3162 µM) | relative viability ([3]; first compound 1 µM) | relative viability ([4]; first compound 0.1 µM) | relative viability ([4]; first compound 0.3162 µM) | relative viability ([4]; first compound 1 µM) | relative viability ([5]; first compound 0.1 µM) | relative viability ([5]; first compound 0.3162 µM) | relative viability ([5]; first compound 1 µM) | relative viability ([6]; first compound 0.1 µM) | relative viability ([6]; first compound 0.3162 µM) | relative viability ([6]; first compound 1 µM)
NCI-H2342 | 0.711 | 0.75 | 0.625 | 0.751 | 0.695 | 0.874 | 0.837 | 0.462 | 0.456 | 0.472 | 0.51 | 0.713 | 0.695 | 0.615 | 0.65 | 0.559 |  |  | 
HCC-15 | 0.866 | 1.07 | 0.787 | 0.75 | 0.114 | 0.247 | 0.381 | 0.732 | 0.676 | 0.806 | 0.165 | 0.339 | 0.341 | 0.499 | 0.705 | 0.576 | 0.755 | 0.719 | 0.734
A-427 | 0.534 | 0.97 | 0.806 | 0.848 | 0.901 | 0.884 | 0.921 | 0.648 | 0.708 | 0.716 | 0.183 | 0.194 | 0.16 | 0.444 | 0.498 | 0.118 | 1.13 | 1.05 | 1.11
NCI-H2228 | 0.605 | 0.759 | 0.539 | 0.509 | 0.112 | 0.12 | 0.119 | 0.648 | 0.631 | 0.495 | 0.188 | 0.221 | 0.227 | 0.62 | 0.507 | 0.482 | 0.609 | 0.837 | 0.543
NCI-H1734 | 0.871 | 0.802 | 0.725 | 0.775 | 0.179 | 0.205 | 0.185 | 0.683 | 0.618 | 0.505 | 0.262 | 0.278 | 0.243 | 0.607 | 0.588 | 0.536 | 0.898 | 0.865 | 0.776
PC-14 | 0.919 | 0.977 | 0.724 | 0.607 |  | 0.172 | 0.14 | 0.371 | 0.324 | 0.309 | 0.436 | 0.59 | 0.583 | 0.746 | 0.88 | 0.633 | 0.927 | 1.03 | 0.92
NCI-H1915 | 0.559 | 0.583 | 0.442 | 0.508 | 0.823 | 0.754 | 0.734 | 0.262 | 0.227 | 0.222 | 0.329 | 0.417 | 0.328 | 0.612 | 0.67 | 0.319 | 1.04 | 1.08 | 1.03
NCI-H1666 | 1.08 | 1.16 | 0.94 | 0.967 | 0.92 | 0.977 | 1.01 | 0.792 | 0.751 | 0.747 | 0.558 | 0.599 | 0.514 | 0.837 | 0.793 | 0.898 | 0.726 | 0.875 | 0.869
